# Assays:
# [1] = target: purified recombinant human GAC (GLS1) (Homo sapiens (Human), UniProt O94925); assay: GLS1 Enzymatic Activity Assay (dual-coupled enzymatic assay, resorufin/Amplex UltraRed readout); assay type: biochemical;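 further: glutamate from GAC coupled via glutamate oxidase and peroxidase to resorufin, read as fluorescence (ex 530, em 590 nm) kinetically or at 20 min, four-parameter logistic IC50 fit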
# [2] = tested on: A549 cells; assay: Proliferation Assay (A549 viability, Cell Titer Fluor, 72 hours); assay type: cell-based; details: Homo sapiens, A549, 72 h
# How it was run: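 A549 cells seeded at 1000 cells/well, rested 24 h, then exposed to compound in 0.5% DMSO for 72 h at 37 °C. Viability read by Cell Titer Fluor fluorescence; IC50 from four-parameter logistic fit.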
# Sequence of purified recombinant human GAC (GLS1) (O94925 other isoform, or with tags, fused parts or gaps): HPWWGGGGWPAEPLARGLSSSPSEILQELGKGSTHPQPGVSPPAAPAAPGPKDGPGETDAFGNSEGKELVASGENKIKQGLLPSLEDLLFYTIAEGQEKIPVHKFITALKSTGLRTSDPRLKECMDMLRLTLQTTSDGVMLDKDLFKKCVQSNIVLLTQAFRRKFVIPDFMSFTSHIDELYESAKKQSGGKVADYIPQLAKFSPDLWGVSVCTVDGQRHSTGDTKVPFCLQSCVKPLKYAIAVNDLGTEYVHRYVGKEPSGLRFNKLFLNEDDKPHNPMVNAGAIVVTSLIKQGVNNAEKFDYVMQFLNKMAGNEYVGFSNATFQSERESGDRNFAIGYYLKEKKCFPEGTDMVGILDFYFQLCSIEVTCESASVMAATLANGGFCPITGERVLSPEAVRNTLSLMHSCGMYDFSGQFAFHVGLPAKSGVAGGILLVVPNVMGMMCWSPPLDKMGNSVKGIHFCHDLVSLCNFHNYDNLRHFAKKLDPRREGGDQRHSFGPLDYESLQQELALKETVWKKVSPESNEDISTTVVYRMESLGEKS
Compound,IC50 [1],EC50 [2]
"O=C(NCc1cccc(OC(F)(F)F)c1)c1cn(CCCCn2cc(C(=O)NCc3cncc(N4CC(F)(F)C4)c3)nn2)nn1 [Example 146, N-{[5-(3,3-difluoroazetidin-1-yl)pyridin-3-yl]methyl}-1-{4-[4-({[3-(trifluoromethoxy)phenyl]methyl}carbamoyl)-1H-1,2,3-triazol-1-yl]butyl}-1H-1,2,3-triazole-4-carboxamide]",< 100 nM,< 100 nM
"CNC(=O)c1cn(CCCCn2cc(C(=O)NCc3cccc(OC(F)(F)F)c3)nn2)nn1 [Example 95, N-methyl-1-{4-[4-({[3-(trifluoromethoxy)phenyl]methyl}carbamoyl)-1H-1,2,3-triazol-1-yl]butyl}-1H-1,2,3-triazole-4-carboxamide]",100 to 500 nM,100 to 500 nM
"O=C(NCCC(F)(F)F)c1cn(CC(F)CCc2nnc(C(=O)NCc3cncc(C(F)(F)F)c3)s2)nn1 (stereo not shown) [Example 502, 5-(3-fluoro-4-{4-[(3,3,3-trifluoropropyl)carbamoyl]-1H-1,2,3-triazol-1-yl}butyl)-N-{[5-(trifluoromethyl)pyridin-3-yl]methyl}-1,3,4-thiadiazole-2-carboxamide]",100 to 500 nM,100 to 500 nM
"O=C(NCc1cc(OC(F)(F)F)ccc1F)c1cn(CCC(F)Cn2cc(C(=O)NCc3ccc(C(F)(F)F)cn3)nn2)nn1 (stereo not shown) [Example 423, 1-{2-fluoro-4-[4-({[2-fluoro-5-(trifluoromethoxy)phenyl]methyl}carbamoyl)-1H-1,2,3-triazol-1-yl]butyl}-N-{[5-(trifluoromethyl)pyridin-2-yl]methyl}-1H-1,2,3-triazole-4-carboxamide]",< 100 nM,< 100 nM
"O=C(NCc1ccc(C(F)(F)F)cn1)c1cn(CC(F)CCc2nnc(C(=O)NCc3cccc(C(F)(F)F)n3)s2)nn1 (stereo not shown) [Example 492, 5-{3-fluoro-4-[4-({[5-(trifluoromethyl)pyridin-2-yl]methyl}carbamoyl)-1H-1,2,3-triazol-1-yl]butyl}-N-{[6-(trifluoromethyl)pyridin-2-yl]methyl}-1,3,4-thiadiazole-2-carboxamide]",< 100 nM,100 to 500 nM
"CNC(=O)c1cn(CCC(F)Cn2cc(C(=O)NCc3ccc(C(F)(F)F)nc3)nn2)nn1 (stereo not shown) [Example 186, 1-{3-fluoro-4-[4-({[6-(trifluoromethyl)pyridin-3-yl]methyl}carbamoyl)-1H-1,2,3-triazol-1-yl]butyl}-N-methyl-1H-1,2,3-triazole-4-carboxamide]",100 to 500 nM,500 to 5000 nM
"COCCOc1cccc(CNC(=O)c2cn(CCCCn3cc(C(=O)NCc4cc(C(F)(F)F)ccn4)nn3)nn2)c1 [Example 125, 1-{4-[4-({[3-(2-methoxyethoxy)phenyl]methyl}carbamoyl)-1H-1,2,3-triazol-1-yl]butyl}-N-{[4-(trifluoromethyl)pyridin-2-yl]methyl}-1H-1,2,3-triazole-4-carboxamide]",< 100 nM,100 to 500 nM
"C[C@H](NC(=O)c1cn(CCC(F)Cn2cc(C(=O)NCc3cc(C(F)(F)F)ccn3)nn2)nn1)c1ccccc1 (stereo partly drawn) [Example 458, 1-[2-fluoro-4-(4-{[(1S)-1-phenylethyl]carbamoyl}-1H-1,2,3-triazol-1-yl)butyl]-N-{[4-(trifluoromethyl)pyridin-2-yl]methyl}-1H-1,2,3-triazole-4-carboxamide]",100 to 500 nM,100 to 500 nM
"CC(C)(C)OC(=O)N1CC(CNC(=O)c2cn(CCCCn3cc(C(=O)NCc4cccc(OC(F)(F)F)c4)nn3)nn2)C1 [Example 79, tert-butyl 3-{[(1-{4-[4-({[3-(trifluoromethoxy)phenyl]methyl}carbamoyl)-1H-1,2,3-triazol-1-yl]butyl}-1H-1,2,3-triazol-4-yl)formamido]methyl}azetidine-1-carboxylate]",< 100 nM,< 100 nM
"O=C(Cc1ccccc1)Nc1nnc(CCCCCn2cc(C(=O)NCc3ccccc3)nn2)s1 [Example 4, N-Benzyl-1-(5-(5-(2-phenylacetamido)-1,3,4-thiadiazol-2-yl)pentyl)-1H-1,2,3-triazole-4-carboxamide]",100 to 500 nM,100 to 500 nM
"O=C(NCc1cc(C(F)(F)F)ccn1)c1cn(CC(F)CCc2nnc(C(=O)NCc3cc(OC(F)(F)F)ccc3F)s2)nn1 (stereo not shown) [Example 449, 5-{3-fluoro-4-[4-({[4-(trifluoromethyl)pyridin-2-yl]methyl}carbamoyl)-1H-1,2,3-triazol-1-yl]butyl}-N-{[2-fluoro-5-(trifluoromethoxy)phenyl]methyl}-1,3,4-thiadiazole-2-carboxamide]",< 100 nM,< 100 nM
"O=C(Cc1ccccc1)Nc1ccc(CCCCc2nnc(C(=O)NCc3ccccc3)s2)nn1 [Example 28, N-benzyl-5-{4-[6-(2-phenylacetamido)pyridazin-3-yl]butyl}-1,3,4-thiadiazole-2-carboxamide]",< 100 nM,100 to 500 nM
"CC(NC(=O)c1cn(CCCCn2cc(C(=O)NCc3cc(C(F)(F)F)ccn3)nn2)nn1)c1cccc(OC(F)(F)F)c1 (stereo not shown) [Example 109, 1-{4-[4-({1-[3-(trifluoromethoxy)phenyl]ethyl}carbamoyl)-1H-1,2,3-triazol-1-yl]butyl}-N-{[4-(trifluoromethyl)pyridin-2-yl]methyl}-1H-1,2,3-triazole-4-carboxamide]",< 100 nM,100 to 500 nM
"Cc1ccc(CNC(=O)c2cn(CCCCn3cc(NC(=O)Cc4ccccn4)nn3)nn2)cn1 [Example 314, N-[(6-methylpyridin-3-yl)methyl]-1-(4-{4-[2-(pyridin-2-yl)acetamido]-1H-1,2,3-triazol-1-yl}butyl)-1H-1,2,3-triazole-4-carboxamide]",100 to 500 nM,500 to 5000 nM
"O=C(NCc1ccc(C(F)(F)F)nc1)c1cn(CCC(F)Cn2cc(C(=O)NCc3cc(OC(F)(F)F)ccc3F)nn2)nn1 (stereo not shown) [Example 421, 1-{2-fluoro-4-[4-({[6-(trifluoromethyl)pyridin-3-yl]methyl}carbamoyl)-1H-1,2,3-triazol-1-yl]butyl}-N-{[2-fluoro-5-(trifluoromethoxy)phenyl]methyl}-1H-1,2,3-triazole-4-carboxamide]",< 100 nM,< 100 nM
"CNC(=O)c1cn(CCC(F)Cn2cc(C(=O)NCc3ccc(OC(F)F)cc3)nn2)nn1 (stereo not shown) [Example 181, 1{4-[4-({[4-(difluoromethoxy)phenyl]methyl}carbamoyl)-1H-1,2,3-triazol-1-yl]-3-fluorobutyl}-N-methyl-1H-1,2,3-triazole-4-carboxamide]",100 to 500 nM,500 to 5000 nM
"O=C(Cc1cc(Cl)ccc1F)Nc1cn(CCCCn2cc(C(=O)NCc3cc(OC(F)(F)F)ccc3F)nn2)nn1 [Example 386, 1-(4-{4-[2-(5-chloro-2-fluorophenyl)acetamido]-1H-1,2,3-triazol-1-yl}butyl)-N-{[2-fluoro-5-(trifluoromethoxy)phenyl]methyl}-1H-1,2,3-triazole-4-carboxamide]",< 100 nM,< 100 nM
O=C(NCc1cc(C(F)(F)F)ccn1)c1cn(CCCCn2cc(C(=O)NCC3COC3)nn2)nn1 [Example 87],500 to 5000 nM,> 5000 nM

# Now from value to compound:
IC50 [1],EC50 [2],Compound
< 100 nM,< 100 nM,"O=C(Cc1cccc(OC(F)(F)F)c1)Nc1nnc(CCC(F)Cn2cc(C(=O)NCc3ccc(C(F)(F)F)cn3)nn2)s1 (stereo not shown) [Example 493, 1-[2-fluoro-4-(5-{2-[3-(trifluoromethoxy)phenyl]acetamido}-1,3,4-thiadiazol-2-yl)butyl]-N-{[5-(trifluoromethyl)pyridin-2-yl]methyl}-1H-1,2,3-triazole-4-carboxamide]"
100 to 500 nM,100 to 500 nM,"O=C(NCc1cccc(OC(F)(F)F)c1)c1cn(CCCCn2cc(C(=O)NCC3CCOCC3)nn2)nn1 [Example 94, N-(oxan-4-ylmethyl)-1-{4-[4-({[3-(trifluoromethoxy)phenyl]methyl}carbamoyl)-1H-1,2,3-triazol-1-yl]butyl}-1H-1,2,3-triazole-4-carboxamide]"
< 100 nM,< 100 nM,"O=C(Cc1ccccn1)Nc1nnc(CCC(F)Cn2cc(C(=O)NCc3cccc(OC(F)(F)F)c3)nn2)s1 (stereo not shown) [Example 513, 1-(2-fluoro-4-{5-[2-(pyridin-2-yl)acetamido]-1,3,4-thiadiazol-2-yl}butyl)-N-{[3-(trifluoromethoxy)phenyl]methyl}-1H-1,2,3-triazole-4-carboxamide]"
< 100 nM,500 to 5000 nM,"O=C(Cc1cccc(OC(F)(F)F)c1)Nc1nnc(CCC(F)Cn2cc(C(=O)NCC3COC3)nn2)s1 (stereo not shown) [Example 558, 1-[2-fluoro-4-(5-{2-[3-(trifluoromethoxy)phenyl]acetamido}-1,3,4-thiadiazol-2-yl)butyl]-N-(oxetan-3-ylmethyl)-1H-1,2,3-triazole-4-carboxamide]"
< 100 nM,< 100 nM,"O=C(Cc1cccc(OC(F)(F)F)c1)Nc1nnc(CCCCn2cc(C(=O)NCc3cccnc3)nn2)s1 [Example 1, N-(pyridin-3-ylmethyl)-1-[4-(5-{2-[3-(trifluoromethoxy)phenyl]acetamido}-1,3,4-thiadiazol-2-yl)butyl]-1H-1,2,3-triazole-4-carboxamide]"
100 to 500 nM,500 to 5000 nM,"COCCNC(=O)c1nnc(CCC(F)Cn2cc(C(=O)NCc3cccc(OC(F)(F)F)c3)nn2)s1 (stereo not shown) [Example 523, 5-{3-fluoro-4-[4-({[3-(trifluoromethoxy)phenyl]methyl}carbamoyl)-1H-1,2,3-triazol-1-yl]butyl}-N-(2-methoxyethyl)-1,3,4-thiadiazole-2-carboxamide]"
< 100 nM,< 100 nM,"O=C(Cc1ccccn1)Nc1nnc(CCCCn2cc(C(=O)NCc3cccc(OC(F)(F)F)c3)nn2)s1 [Example 553, 1-(4-{5-[2-(pyridin-2-yl)acetamido]-1,3,4-thiadiazol-2-yl}butyl)-N-{[3-(trifluoromethoxy)phenyl]methyl}-1H-1,2,3-triazole-4-carboxamide]"
< 100 nM,< 100 nM,"O=C(Cc1cccc(OC(F)(F)F)c1)Nc1cn(CC(F)CCn2cc(C(=O)NCc3cc(OC(F)(F)F)ccc3F)nn2)nn1 (stereo not shown) [Example 340, 1-[3-fluoro-4-(4-{2-[3-(trifluoromethoxy)phenyl]acetamido}-1H-1,2,3-triazol-1-yl)butyl]-N-{[2-fluoro-5-(trifluoromethoxy)phenyl]methyl}-1H-1,2,3-triazole-4-carboxamide]"
